From ChEMBL document CHEMBL4699525, “Design and synthesis of new indanol-1,2,3-triazole derivatives as potent antitubercular and antimicrobial agents” (Bioorg Med Chem Lett, 2020)
Values after ≈ are worked out from the molar mass of the structure shown. Active and inactive are the calls of the source. No cut-off for these calls is given here.

Assays:
[1] = test system: Bacillus cereus; test: Antibacterial activity against Bacillus cereus assessed as inhibition of bacterial growth incubated for 24 hrs by agar well diffusion method; type: functional
[2] = test system: Pseudomonas aeruginosa; test: Antibacterial activity against Pseudomonas aeruginosa assessed as inhibition of bacterial growth incubated for 24 hrs by agar well diffusion method; type: functional
[3] = test system: Candida albicans; test: Antifungal activity against Candida albicans assessed as inhibition of fungal growth incubated for 24 hrs by agar well diffusion method; type: functional
[4] = test system: Aspergillus niger; test: Antifungal activity against Aspergillus niger assessed as inhibition of fungal growth incubated for 24 hrs by agar well diffusion method; type: functional
[5] = test system: Salmonella enterica subsp. enterica serovar Abony; test: Antibacterial activity against Salmonella abony assessed as inhibition of bacterial growth incubated for 24 hrs by agar well diffusion method; type: functional
[6] = test system: Klebsiella aerogenes; test: Antibacterial activity against Enterobacter aerogenes assessed as inhibition of bacterial growth incubated for 24 hrs by agar well diffusion method; type: functional
[7] = test system: Escherichia coli; test: Antibacterial activity against Escherichia coli assessed as inhibition of bacterial growth incubated for 24 hrs by agar well diffusion method; type: functional
[8] = test system: Staphylococcus aureus; test: Antibacterial activity against Staphylococcus aureus assessed as inhibition of bacterial growth incubated for 24 hrs by agar well diffusion method; type: functional
[9] = target: T1, Enoyl-[acyl-carrier-protein] reductase [NADH] (Mycobacterium tuberculosis) (UniProt P9WGR1); test: Inhibition of InhA in Mycobacterium tuberculosis H37Rv assessed antitubercular activity by measuring inhibition of bacterial growth incubated for 7 days by MABA assay; conditions: time 7.0 day
T1 sequence (whole entry): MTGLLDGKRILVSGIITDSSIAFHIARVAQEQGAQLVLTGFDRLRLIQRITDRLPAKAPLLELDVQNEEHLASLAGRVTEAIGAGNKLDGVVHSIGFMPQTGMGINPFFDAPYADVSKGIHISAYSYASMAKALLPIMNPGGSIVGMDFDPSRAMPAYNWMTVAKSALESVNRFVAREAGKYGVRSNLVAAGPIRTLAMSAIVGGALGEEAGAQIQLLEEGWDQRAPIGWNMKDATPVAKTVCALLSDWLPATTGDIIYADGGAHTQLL

[10] = test system: Bacillus subtilis; test: Antibacterial activity against Bacillus subtilis assessed as inhibition of bacterial growth incubated for 24 hrs by agar well diffusion method; type: functional
[11] = test system: Shigella boydii; test: Antibacterial activity against Shigella boydii assessed as inhibition of bacterial growth incubated for 24 hrs by agar well diffusion method; type: functional
[12] = test system: Salmonella typhi; test: Antibacterial activity against Salmonella typhi assessed as inhibition of bacterial growth incubated for 24 hrs by agar well diffusion method; type: functional; conditions: Salmonella enterica subsp. enterica serovar Typhi
[13] = test system: Saccharomyces cerevisiae; test: Antifungal activity against Saccharomyces cerevisiae assessed as inhibition of fungal growth incubated for 24 hrs by agar well diffusion method; type: functional

Structure (SMILES) | diameter of the inhibition zone (DIZ) [1] | diameter of the inhibition zone (DIZ) [2] | diameter of the inhibition zone (DIZ) [3] | diameter of the inhibition zone (DIZ) [4] | diameter of the inhibition zone (DIZ) [5] | diameter of the inhibition zone (DIZ) [6] | diameter of the inhibition zone (DIZ) [7] | diameter of the inhibition zone (DIZ) [8] | MIC [9] | diameter of the inhibition zone (DIZ) [10] | diameter of the inhibition zone (DIZ) [11] | diameter of the inhibition zone (DIZ) [12] | diameter of the inhibition zone (DIZ) [13]
CCc1ccc(NC(=O)Cn2cc(COc3ccc4c(c3)CCC4)nn2)cc1 | inactive | inactive | inactive | inactive | inactive | inactive | inactive | inactive | > 25 µM | inactive | 11 mm | inactive | inactive
Cc1ccccc1NC(=O)Cn1cc(COc2ccc3c(c2)CCC3)nn1 | inactive | inactive | inactive | inactive | inactive | inactive | inactive | inactive | > 25 µM | inactive | 11 mm | inactive | inactive
O=C(Cn1cc(COc2ccc3c(c2)CCC3)nn1)Nc1ccc(Br)cc1 | inactive | 5 mm | inactive | inactive | inactive | 12 mm | inactive | inactive | > 25 µM | inactive | 13 mm | inactive | 12 mm
Cc1ccc(-n2cc(COc3ccc4c(c3)CCC4)nn2)cc1 | inactive | inactive | 12 mm | inactive | inactive | inactive | inactive | inactive | > 25 µM | inactive | inactive | inactive | inactive
CC[C@@H](CO)NCCN[C@@H](CC)CO |  |  |  |  |  |  |  |  | 3.12 µM (≈ 0.638 µg/mL) |  |  |  | 
Cc1ccc(NC(=O)Cn2cc(COc3ccc4c(c3)CCC4)nn2)cc1 | inactive | inactive | 12 mm | inactive | inactive | inactive | inactive | 8 mm | > 25 µM | inactive | inactive | inactive | inactive
COc1ccc(NC(=O)Cn2cc(COc3ccc4c(c3)CCC4)nn2)cc1 | inactive | inactive | inactive | inactive | inactive | inactive | inactive | inactive | > 25 µM | inactive | inactive | inactive | inactive
O=C(Cn1cc(COc2ccc3c(c2)CCC3)nn1)Nc1ccccc1Cl | inactive | inactive | inactive | inactive | inactive | inactive | inactive | inactive | > 25 µM | inactive |  | inactive | inactive
